For one compound, kinase still bound, per cent of control results are on record in the kinase profiling compilation of Christmann-Franck et al. (2016).

Assay in all cases: KINOMEscan competition binding
Common to all, as to details: compound 10.0 µM

Assay [1] deals with MET (human), P08581 [Y1235D].
For assay [2], the system named is EGFR (human), P00533 [747-751 del / S ins].
Assay [3] concerns KIT (human), P10721 [L576P].
For assay [4], the system named is RET (human), P07949 [M918T].
The subject of assay [5] is EGFR (human), P00533 [T790M/L858R].
Assay [6] relates to ALK (human), Q9UM73 [L1196M].
Assay [7] deals with ALK (human), Q9UM73 [C1156Y].
In assay [8] the test system is RET (human), P07949 [V804M].
The test system of assay [9] is ABL1 (human), P00519 [Y253F].
Assay [10] concerns KIT (human), P10721 [V559D/V654A].
The subject of assay [11] is FLT3 (human), P36888 [R834Q].
The test system of assay [12] is EGFR (human), P00533 [T790M].
Assay [13] relates to EGFR (human), P00533 [752-759 del].
The test system of assay [14] is FLT3 (human), P36888 [D835H].

Chain of RET (human), P07949 [M918T] (P07949 whole entry M918T, looked up): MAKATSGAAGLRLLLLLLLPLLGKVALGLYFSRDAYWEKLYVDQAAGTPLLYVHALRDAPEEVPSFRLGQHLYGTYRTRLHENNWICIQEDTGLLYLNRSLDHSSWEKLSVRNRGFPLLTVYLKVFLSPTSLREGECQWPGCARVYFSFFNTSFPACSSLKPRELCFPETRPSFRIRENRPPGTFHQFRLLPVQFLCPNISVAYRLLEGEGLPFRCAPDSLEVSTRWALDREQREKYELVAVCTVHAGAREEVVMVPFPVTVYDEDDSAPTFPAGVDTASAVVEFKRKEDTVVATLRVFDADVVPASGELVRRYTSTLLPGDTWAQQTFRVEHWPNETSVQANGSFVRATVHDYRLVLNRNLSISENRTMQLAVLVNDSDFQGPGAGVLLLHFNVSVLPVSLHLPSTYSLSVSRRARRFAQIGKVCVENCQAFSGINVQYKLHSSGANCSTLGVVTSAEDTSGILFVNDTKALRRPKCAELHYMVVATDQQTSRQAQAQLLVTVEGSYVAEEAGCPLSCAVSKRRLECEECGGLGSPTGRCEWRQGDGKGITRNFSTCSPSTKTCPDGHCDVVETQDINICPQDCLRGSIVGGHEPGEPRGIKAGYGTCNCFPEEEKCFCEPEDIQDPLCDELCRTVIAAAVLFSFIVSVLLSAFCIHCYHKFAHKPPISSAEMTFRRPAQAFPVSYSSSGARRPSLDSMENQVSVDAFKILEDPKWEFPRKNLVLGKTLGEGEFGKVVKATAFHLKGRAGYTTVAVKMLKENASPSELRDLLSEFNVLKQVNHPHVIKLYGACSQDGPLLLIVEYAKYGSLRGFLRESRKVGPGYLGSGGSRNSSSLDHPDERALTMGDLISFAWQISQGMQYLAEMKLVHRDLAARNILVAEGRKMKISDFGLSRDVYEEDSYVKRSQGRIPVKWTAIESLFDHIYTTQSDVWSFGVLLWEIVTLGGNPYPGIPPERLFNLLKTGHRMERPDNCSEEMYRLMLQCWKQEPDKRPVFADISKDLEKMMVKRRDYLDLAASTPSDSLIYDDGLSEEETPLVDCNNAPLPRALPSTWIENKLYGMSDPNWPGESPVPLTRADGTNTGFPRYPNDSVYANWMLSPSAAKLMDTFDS
Chain of ALK (human), Q9UM73 [C1156Y] (Q9UM73 whole entry C1156Y, looked up): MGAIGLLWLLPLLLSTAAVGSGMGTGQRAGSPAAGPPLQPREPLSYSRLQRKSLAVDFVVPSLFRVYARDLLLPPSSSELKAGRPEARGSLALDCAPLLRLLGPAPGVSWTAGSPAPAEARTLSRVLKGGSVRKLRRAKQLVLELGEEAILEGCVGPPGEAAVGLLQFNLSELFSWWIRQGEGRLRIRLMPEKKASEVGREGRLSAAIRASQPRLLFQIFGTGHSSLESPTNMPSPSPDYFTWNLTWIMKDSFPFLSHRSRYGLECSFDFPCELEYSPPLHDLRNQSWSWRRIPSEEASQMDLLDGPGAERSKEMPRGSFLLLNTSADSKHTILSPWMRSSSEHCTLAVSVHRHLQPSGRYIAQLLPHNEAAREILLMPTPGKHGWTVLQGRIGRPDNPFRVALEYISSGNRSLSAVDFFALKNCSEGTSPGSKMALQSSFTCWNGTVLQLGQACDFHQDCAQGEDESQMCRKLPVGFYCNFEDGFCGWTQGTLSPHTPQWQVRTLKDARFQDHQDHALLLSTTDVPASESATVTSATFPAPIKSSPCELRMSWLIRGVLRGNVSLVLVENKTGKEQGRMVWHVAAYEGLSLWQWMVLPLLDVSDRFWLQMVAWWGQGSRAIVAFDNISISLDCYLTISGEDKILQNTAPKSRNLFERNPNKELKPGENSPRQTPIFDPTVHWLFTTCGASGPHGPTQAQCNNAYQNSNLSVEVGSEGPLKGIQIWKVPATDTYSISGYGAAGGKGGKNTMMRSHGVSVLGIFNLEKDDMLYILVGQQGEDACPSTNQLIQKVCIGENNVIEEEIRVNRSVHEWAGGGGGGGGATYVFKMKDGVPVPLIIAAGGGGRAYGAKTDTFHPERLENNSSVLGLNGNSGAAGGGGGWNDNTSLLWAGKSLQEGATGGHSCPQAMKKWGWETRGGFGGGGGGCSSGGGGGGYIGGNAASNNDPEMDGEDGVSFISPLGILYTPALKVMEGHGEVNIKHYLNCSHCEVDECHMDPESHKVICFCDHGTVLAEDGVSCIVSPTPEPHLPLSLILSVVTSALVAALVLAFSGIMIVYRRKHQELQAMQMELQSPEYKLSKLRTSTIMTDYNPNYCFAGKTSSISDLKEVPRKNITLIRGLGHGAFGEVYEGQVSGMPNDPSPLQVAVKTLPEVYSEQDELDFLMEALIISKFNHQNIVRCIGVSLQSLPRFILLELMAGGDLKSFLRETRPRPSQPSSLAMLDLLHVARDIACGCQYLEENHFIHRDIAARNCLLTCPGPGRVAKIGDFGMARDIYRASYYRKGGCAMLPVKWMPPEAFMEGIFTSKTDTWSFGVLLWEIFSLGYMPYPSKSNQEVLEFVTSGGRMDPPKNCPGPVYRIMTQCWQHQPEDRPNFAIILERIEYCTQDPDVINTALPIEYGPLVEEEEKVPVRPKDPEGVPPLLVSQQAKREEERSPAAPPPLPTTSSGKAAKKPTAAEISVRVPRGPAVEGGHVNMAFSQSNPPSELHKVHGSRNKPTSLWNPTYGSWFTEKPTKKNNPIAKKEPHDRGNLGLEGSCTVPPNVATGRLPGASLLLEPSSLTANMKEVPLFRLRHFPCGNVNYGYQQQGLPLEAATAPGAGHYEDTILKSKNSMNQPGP
Chain of RET (human), P07949 [V804M] (P07949 whole entry V804M, looked up): as the sequence (P07949 whole entry M918T, looked up) above, with V804M, T918M counted along it
Chain of KIT (human), P10721 [L576P] (P10721 whole entry L576P, looked up): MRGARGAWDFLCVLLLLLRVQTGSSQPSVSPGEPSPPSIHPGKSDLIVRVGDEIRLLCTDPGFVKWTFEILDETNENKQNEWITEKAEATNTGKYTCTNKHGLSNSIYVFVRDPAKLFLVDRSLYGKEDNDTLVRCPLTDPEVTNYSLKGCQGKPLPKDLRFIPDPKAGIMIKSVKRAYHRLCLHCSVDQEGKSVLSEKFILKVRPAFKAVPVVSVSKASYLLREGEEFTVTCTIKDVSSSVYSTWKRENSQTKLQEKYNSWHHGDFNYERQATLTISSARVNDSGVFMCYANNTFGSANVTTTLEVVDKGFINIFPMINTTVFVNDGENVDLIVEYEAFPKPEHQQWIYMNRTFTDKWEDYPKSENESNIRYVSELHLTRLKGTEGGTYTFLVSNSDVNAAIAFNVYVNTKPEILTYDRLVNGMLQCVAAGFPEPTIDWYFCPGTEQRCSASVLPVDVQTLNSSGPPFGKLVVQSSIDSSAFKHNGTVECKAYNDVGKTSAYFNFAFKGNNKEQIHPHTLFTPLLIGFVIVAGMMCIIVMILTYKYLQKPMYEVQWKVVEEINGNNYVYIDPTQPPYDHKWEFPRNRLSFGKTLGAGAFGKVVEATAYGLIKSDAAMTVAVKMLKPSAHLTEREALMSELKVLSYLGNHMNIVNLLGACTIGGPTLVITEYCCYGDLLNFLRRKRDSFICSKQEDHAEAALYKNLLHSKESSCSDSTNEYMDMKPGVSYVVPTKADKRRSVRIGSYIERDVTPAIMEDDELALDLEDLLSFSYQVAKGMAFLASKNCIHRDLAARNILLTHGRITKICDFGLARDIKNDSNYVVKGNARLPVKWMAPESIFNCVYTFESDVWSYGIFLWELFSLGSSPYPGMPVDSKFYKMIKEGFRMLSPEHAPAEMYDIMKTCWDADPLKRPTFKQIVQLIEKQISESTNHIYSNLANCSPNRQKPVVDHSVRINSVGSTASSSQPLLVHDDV
Chain of KIT (human), P10721 [V559D/V654A] (P10721 whole entry V559D/V654A, looked up): as the sequence (P10721 whole entry L576P, looked up) above, with V559D, P576L, V654A counted along it
Chain of ALK (human), Q9UM73 [L1196M] (Q9UM73 whole entry L1196M, looked up): as the sequence (Q9UM73 whole entry C1156Y, looked up) above, with Y1156C, L1196M counted along it

Take `O=c1[nH]c2ccccc2n1C1CCN(Cc2ccc(-c3nc4cc5[nH]cnc5cc4nc3-c3ccccc3)cc2)CC1`: the kinase still bound, per cent of control worked out at 68% in assay [1]; 92% in [2]; 87% in assay [3]; 79% in [4]; 100% in [5]; 64% in [6]. The kinase still bound, per cent of control in [7] is 55%; in assay [8] it was 91%; in assay [9], 72%; in [10] it was 92%; in assay [11], 100%; in [12], 67%. Besides, the kinase still bound, per cent of control was 58% in assay [13] and 74% in [14].
